What was measured:
[1] = tested on: MRSA BAA39 biofilm; test: MBEC antibiofilm assay; settings: 4 h treatment
Protocol: (§1) The MBEC was measured using micro-titre plate-based technology. Briefly, 160 μL of MRSA BAA39 or P. aeruginosa O1 suspension (cell density at ˜10^7 CFU/mL) was added into the 96-well growth plate covered by a lid containing MBEC pegs. Biofilm were grown on the peg lid after incubation at 37° C. for 24-48 h. After removing planktonic bacteria by washing with PBS twice, the lid with biofilm were transferred into the challenge plate which contained two-fold serial dilutions of one of P1-P6 solution, with total volume of 200 μL in each well. The treatment was performed at room temperature for 4 h. After that, the peg lid was washed again with PBS and transferred to a recovery plate which contained PBS (200 μL) in each well. Biofilm bacteria that survived were dislodged from the peg lid by sonication for 30±5 min, and detached bacteria were then 10-fold serial-diluted in sterile PBS and spread on agar plates. After incubation at 37° C. for 24 h, the colonies were counted.

[2] = tested on: MRSA BAA39; test: MIC broth microdilution; type: cell-based, Staphylococcus aureus
[3] = tested on: P. aeruginosa PAO1; test: MIC90 broth microdilution; type: cell-based, Pseudomonas aeruginosa
[4] = tested on: S. aureus (SA); test: MIC broth microdilution; type: cell-based, Staphylococcus aureus
[5] = tested on: E. coli (EC); test: MIC broth microdilution; type: cell-based, Escherichia coli
[6] = tested on: P. aeruginosa O1 biofilm; test: MBEC antibiofilm assay; settings: 4 h treatment
Protocol: as §1

[7] = tested on: 3T3 cells; test: Mammalian cell cytotoxicity, MTT; type: cell-based, Mouse; settings: mouse embryonic fibroblast 3T3 cells, MTT

For Benzalkonium chloride [C3], the antibiofilm efficacy rank [1] was “P(ImC8)>P(ImC8-co-ImC8D)-50%˜P(ImC6)>BAC”, the “MIC MRSA BAA39” value [2] was 1 µg/mL and the “MIC PAO1” value [3] was 128 µg/mL. For the same substance, the “MIC SA” value [4] was 1 to 2 µg/mL, the “MIC EC” value [5] was 16 µg/mL and the antibiofilm potency order [6] was “P(ImC8)>P(ImC8-co-ImC8D)-50%>P(ImC6)>BAC”. The IC50 [7] was 10 µg/mL.

— patent US20230131111A1, “BIODEGRADABLE POLYIMIDAZOLIUMS AND OLIGOIMIDAZOLIUMS” (Nanyang Technological University, priority 2020, published 2023)
